Measured values: patent EP1661584A1, “Use of conjugates of amatoxins and phallotoxins with macromolecules for cancer and inflammation therapy” (Faulstich, Heinz, Dr., priority 2004, dated 2006)

How the values were obtained:
[1] = biological target: DNA-dependent RNA polymerase II (Homo sapiens, UniProt P24928+P30876); conditions: complex between amanitin and RNA polymerase II; cited from earlier work
[2] = system: actin; test: actin binding
Text: In all cases the macromolecular conjugates were distinctly more toxic to tumor cells (>1000) than the native toxins. Of high importance for this cytotoxic activity is the presence of a disulfide group in the linker moiety between toxin and macromolecule. After uptake into the tumor cells the disulfide group is cleaved by reduction releasing thiopropionyl-aminophalloidin or thiopropionyl-aminophallacidin into cytoplasm.

Row | Substance | Kd [1] | actin binding compared with phalloidin [2]
1 | amanitin | 3 nM | 
2 | thiopropionyl-aminophalloidin |  | as tightly as phalloidin itself
